According to patent US20160084855A1, “Compositions and Methods for Modulation and Detection of Immune and Inflammatory Responses” (UNIVERSITY OF CONNECTICUT, priority 2013, published 2016):
Entries after “also recorded” stand apart in the source; their conditions may differ.

Tests used:
TLR4 = details: Gomi et al., J Immunol. 2002; cited from earlier work
human TLR2 = molecular target: T1, human TLR2 (Homo sapiens, UniProt O60603); assay: HEK293 cells transfected with human TLR2, CD14 (MD-2) and SEAP reporter; assay type: cell-based; details: for HEK cell activation versus DMSO vehicle (stimulated/nonstimulated ratio): 24 h, MMP 0.2 μg/ml, LTA 2 μg/ml, lipid 654 and lipid 430 0.69 μg/ml, P<0.05; for Activation of human TLR2 in HEK cells: HPLC fractions of P. gingivalis total lipids; for Effect of pretreatment with anti-human TLR2 antibody on HEK-TLR2 cell activation: antibody 10 μg/mL 1 hour, MMP 0.1 μg/ml, LTA 1 μg/ml, lipid 430 and lipid 654 0.69 μg/ml
T1 construct: host or cells: HEK293
T1 sequence (O60603 21-784): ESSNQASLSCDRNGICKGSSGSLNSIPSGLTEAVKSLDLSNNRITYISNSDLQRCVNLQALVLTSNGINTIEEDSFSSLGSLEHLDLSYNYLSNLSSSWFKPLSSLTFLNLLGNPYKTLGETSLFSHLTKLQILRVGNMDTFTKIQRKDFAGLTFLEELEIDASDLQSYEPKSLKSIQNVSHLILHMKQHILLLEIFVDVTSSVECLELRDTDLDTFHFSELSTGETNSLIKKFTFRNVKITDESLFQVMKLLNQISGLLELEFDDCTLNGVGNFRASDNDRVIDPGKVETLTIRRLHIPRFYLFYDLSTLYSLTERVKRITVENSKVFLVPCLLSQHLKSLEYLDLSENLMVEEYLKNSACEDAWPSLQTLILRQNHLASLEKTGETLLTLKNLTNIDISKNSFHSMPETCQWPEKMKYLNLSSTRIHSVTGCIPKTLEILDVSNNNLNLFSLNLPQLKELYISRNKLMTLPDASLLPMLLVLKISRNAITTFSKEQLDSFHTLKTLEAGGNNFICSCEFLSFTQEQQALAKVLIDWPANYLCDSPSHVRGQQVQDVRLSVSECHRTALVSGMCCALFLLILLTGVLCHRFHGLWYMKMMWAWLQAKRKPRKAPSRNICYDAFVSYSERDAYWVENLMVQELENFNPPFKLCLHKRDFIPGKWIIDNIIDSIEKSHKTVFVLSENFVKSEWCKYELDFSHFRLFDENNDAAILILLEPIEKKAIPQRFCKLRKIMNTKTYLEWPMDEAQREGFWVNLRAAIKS
T1 sequence (Q9Y2C9 32-796 partner): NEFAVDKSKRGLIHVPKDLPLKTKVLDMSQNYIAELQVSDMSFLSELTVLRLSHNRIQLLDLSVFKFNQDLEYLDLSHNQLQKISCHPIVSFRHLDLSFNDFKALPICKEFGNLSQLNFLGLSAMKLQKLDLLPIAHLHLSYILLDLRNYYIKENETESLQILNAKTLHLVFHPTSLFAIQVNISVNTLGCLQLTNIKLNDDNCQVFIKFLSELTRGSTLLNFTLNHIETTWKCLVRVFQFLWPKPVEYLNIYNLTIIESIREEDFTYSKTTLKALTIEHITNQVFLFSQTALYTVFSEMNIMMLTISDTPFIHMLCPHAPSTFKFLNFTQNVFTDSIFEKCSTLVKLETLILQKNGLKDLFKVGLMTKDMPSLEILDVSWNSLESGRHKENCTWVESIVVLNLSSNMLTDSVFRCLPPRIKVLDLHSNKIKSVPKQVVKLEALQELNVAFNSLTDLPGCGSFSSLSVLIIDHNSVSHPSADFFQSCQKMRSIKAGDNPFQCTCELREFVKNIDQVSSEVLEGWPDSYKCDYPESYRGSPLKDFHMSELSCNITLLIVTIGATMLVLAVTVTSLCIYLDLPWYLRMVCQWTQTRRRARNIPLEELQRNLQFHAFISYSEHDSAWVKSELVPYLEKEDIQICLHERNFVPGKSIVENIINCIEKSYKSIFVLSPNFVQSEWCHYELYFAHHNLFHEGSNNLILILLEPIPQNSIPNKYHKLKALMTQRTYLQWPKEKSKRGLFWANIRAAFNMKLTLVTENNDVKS
Source text: In vitro effects, human cells: HEK293 cells (human embryonic kidney cells) transfected with the human TLR2 and SEAP (secreted embryonic alkaline phosphatase) genes, were used to assay the function of Lipid 654 in vitro. The HEK cells, which naturally express variable levels of TLRs 1, 3, 5, 6, 7 and 9, were also transfected with the gene for CD14. CD14 is a co-receptor that enhances TLR2 responses. Additionally, TLR2 responses are most often mediated via another co-receptor which, in most cases, is either TLR1 or TLR6. The SEAP reporter gene is under the control of the IFN-β minimal promoter fused to five NF-κB and AP-1-binding sites. Stimulation with a TLR2 ligand activates NF-κB and AP-1 which induce the production of SEAP which is then quantitated as a colorimetric change in the presence of a detection medium.
Lipid 654, solubilized in 50% DMSO in water, and two documented TLR2 agonists, MMP and lipotechoic acid (LTA), were incubated for 24 hours with the HEK cells in the presence or absence of antibodies to TLR2 and TLR6.
(§1) Cell lines and assays: Human embryonic kidney cells (HEK293 cells), either nontransfected or transfected with human TLR2 or human TLR4 and stably expressing MD-2 and CD14, were purchased from InvivoGen. Cells were cultured in Dulbecco's modified Eagle's medium (DMEM; Gibco) containing 4.5 g/liter 1-glucose and 10% fetal bovine serum (FBS). The activities of specific TLR agonists were measured through a colorimetric assay for the secretory embryonic alkaline phosphatase (SEAP), a reporter gene that is linked to NF-κB activation. Measurement of SEAP activity using the Quanti-blue substrate (InvivoGen) after TLR agonist treatment was carried out in test medium (DMEM, 10% FBS) without antibiotics. NF-κB activation was expressed as a response ratio for each stimulus relative to SEAP activity in unstimulated (vehicle control) cells. For in vitro testing, all lipid preparations tested were solubilized in a 50% mixture of dimethyl sulfoxide (DMSO)-water (approximately 1.11% DMSO in the final culture medium).
To determine the ability of P. gingivalis lipids to activate human cells via TLRs, the total lipids of P. gingivalis were fractionated by HPLC, and an aliquot of each fraction was dried and dissolved in 50% DMSO in water. Each HPLC fraction was then tested for cell activation by using HEK293 cells stably transfected with human TLR2, CD14, MD-2, and SEAP genes. In addition, the HEK293 cells naturally express variable levels of TLRs 1, 3, 5, 6, 7, and 9. The SEAP reporter gene is under the control of the beta interferon minimal promoter fused to five NF-κB and AP-1 binding sites. Stimulation with a TLR2 ligand activates NF-κB and AP-1, which induces the production of SEAP. SEAP is then quantitated via a colorimetric change in medium samples following the addition of a suitable enzyme substrate. Using this cell screen for human TLR2 engagement, each HPLC lipid fraction was screened for cell activation.

human TLR4 = molecular target: T2, human TLR4 (Homo sapiens, UniProt O00206+Q9Y6Y9); assay: HEK293 cells transfected with human TLR4, CD14 (MD-2) and SEAP reporter; assay type: cell-based; details: 24 hours; for Activation of TLR4-expressing HEK293 cells: Example 23, lipids 0.69 μg/ml, LPS 1 μg/ml
T2 construct: host or cells: HEK293
T2 sequence (O00206 24-839): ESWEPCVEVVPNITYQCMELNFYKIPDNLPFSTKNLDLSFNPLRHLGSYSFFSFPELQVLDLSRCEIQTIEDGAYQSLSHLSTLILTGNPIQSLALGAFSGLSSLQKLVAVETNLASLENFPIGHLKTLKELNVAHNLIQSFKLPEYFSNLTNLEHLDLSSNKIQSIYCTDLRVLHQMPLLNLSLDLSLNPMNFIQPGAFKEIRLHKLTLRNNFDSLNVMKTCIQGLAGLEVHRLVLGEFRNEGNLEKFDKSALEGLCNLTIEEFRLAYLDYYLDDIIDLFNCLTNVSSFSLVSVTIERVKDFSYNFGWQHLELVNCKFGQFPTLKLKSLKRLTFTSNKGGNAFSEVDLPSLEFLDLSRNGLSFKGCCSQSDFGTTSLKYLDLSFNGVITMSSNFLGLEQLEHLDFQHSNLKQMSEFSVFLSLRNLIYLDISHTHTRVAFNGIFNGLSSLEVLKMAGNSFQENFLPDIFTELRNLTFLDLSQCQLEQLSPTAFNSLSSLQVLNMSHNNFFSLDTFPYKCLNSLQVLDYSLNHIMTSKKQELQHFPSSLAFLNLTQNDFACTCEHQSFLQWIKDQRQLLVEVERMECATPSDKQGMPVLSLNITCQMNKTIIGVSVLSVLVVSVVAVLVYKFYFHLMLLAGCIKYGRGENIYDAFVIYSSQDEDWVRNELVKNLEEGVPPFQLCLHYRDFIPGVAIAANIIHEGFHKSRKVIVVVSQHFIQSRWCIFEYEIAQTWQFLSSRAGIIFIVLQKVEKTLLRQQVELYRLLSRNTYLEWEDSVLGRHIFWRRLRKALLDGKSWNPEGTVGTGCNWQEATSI
T2 sequence (Q9Y6Y9 17-160 limits assumed): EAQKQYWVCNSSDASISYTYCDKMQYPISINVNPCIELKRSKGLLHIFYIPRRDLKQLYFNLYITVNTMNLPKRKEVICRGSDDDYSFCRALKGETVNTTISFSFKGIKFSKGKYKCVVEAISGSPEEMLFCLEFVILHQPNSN
Method: as §1
To test whether lipid 654 and lipid 430 can function as ligands for TLR4, HEK293 cells transfected with the human TLR4, CD14, and MD-2 genes but not expressing TLR2 were utilized.

CCL2 = assay: Serum CCL2 by ELISA after injection of lipid into mice; assay type: in vivo, mouse; details: four hours
Method: Lipid 654 was injected intraperitoneally (i.p.) into mice and three to four hours later serum was drawn and analyzed for levels of CCL2 via ELISA. Both female wild type (WT) C57BL/6 mice and female TLR2-deficient (TLR2−/−) mice were injected i.p. with either DMSO (vehicle control; VC) or Lipid 654. Three to four hours later, serum was drawn from these mice and analyzed for levels of CCL2.
In vivo assays: Wild-type (WT) C57BL/6 mice or TLR2^−/− mice were injected intraperitoneally (i.p.) or intravenously (i.v.) with vehicle control or specific lipids. Four hours later, blood samples were obtained from mice, and the mice were euthanized. Serum was separated from the blood samples and frozen at −80° C. until analysis. Serum samples were analyzed for levels of CCL2 by ELISA (R&D, Minneapolis, Minn.).
Lipid 654 was injected i.p. in 50% DMSO and lipid 430 was injected i.v. in phosphate-buffered saline (PBS). WT female C57BL/6 mice and TLR2^−/− female mice were injected with either vehicle, lipid 654, or lipid 430. Four hours later, serum was recovered from these mice and analyzed for levels of CCL2. […] The same was true for lipid 430.

TLR2 = molecular target: T3, TLR2 (Mus musculus, UniProt Q9QUN7); assay: TLR2 engagement in mouse bone cells; assay type: cell-based
T3 construct: endogenous in cells; host or cells: mouse bone cells
T3 sequence (Q9QUN7 25-784): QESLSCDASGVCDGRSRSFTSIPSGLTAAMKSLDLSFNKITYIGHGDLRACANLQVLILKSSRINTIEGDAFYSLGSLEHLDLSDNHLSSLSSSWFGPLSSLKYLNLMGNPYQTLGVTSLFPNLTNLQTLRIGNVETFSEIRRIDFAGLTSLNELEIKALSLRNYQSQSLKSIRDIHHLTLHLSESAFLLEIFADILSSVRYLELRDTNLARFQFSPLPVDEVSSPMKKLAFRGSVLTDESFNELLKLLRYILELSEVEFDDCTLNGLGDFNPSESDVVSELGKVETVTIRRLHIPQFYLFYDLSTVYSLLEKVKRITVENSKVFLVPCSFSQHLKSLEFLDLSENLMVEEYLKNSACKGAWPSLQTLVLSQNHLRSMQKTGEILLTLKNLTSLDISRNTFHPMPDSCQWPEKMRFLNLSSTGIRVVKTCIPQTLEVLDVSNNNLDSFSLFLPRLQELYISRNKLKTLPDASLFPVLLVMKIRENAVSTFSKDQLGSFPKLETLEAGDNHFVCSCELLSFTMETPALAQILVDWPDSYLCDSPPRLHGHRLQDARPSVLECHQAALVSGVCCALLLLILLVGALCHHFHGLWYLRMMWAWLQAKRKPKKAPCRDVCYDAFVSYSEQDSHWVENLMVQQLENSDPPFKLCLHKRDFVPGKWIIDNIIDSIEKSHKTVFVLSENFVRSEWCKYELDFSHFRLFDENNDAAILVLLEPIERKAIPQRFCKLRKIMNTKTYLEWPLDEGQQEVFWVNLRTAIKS
T3 sequence (Q9EPW9 28-795 partner): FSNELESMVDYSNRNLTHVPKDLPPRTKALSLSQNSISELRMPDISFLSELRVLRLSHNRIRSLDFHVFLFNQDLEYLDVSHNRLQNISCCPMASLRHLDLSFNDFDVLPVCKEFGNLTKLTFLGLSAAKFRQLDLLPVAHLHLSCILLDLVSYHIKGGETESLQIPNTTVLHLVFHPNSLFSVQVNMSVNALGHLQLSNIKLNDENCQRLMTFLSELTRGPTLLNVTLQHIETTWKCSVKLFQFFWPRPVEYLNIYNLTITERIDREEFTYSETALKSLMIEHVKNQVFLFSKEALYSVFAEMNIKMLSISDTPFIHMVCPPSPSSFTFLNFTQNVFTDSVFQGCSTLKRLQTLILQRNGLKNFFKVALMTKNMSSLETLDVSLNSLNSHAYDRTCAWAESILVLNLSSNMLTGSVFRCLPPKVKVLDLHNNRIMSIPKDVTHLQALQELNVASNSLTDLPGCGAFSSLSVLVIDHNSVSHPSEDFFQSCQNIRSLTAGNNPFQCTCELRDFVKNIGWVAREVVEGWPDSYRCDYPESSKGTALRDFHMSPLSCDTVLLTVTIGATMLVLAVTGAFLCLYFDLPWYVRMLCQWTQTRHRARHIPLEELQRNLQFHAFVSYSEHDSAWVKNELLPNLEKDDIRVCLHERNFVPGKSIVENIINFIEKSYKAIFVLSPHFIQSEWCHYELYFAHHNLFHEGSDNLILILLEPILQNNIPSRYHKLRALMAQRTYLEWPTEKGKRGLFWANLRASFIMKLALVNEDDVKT
Source text: Phospholipase A2 enzymes are recovered in all tissues and levels of this enzyme are increased in association with virtually all chronic inflammatory diseases. In fact, phospholipase A2 inhibitors are being used to treat atherosclerosis, multiple sclerosis, and a variety of other conditions. Phospholipase A2 hydrolyzes glycerol phospholipids so that the ester linked fatty acid in the #2 carbon position of glycerol is released, but only for a glycerol ester linkage in the L enantiomeric configuration. Phospholipase A2 will not hydrolyze fatty acid linked in the D enantiomeric form of glycerol.

female SJL mice with EAE = assay: EAE by transfer of PLP-stimulated lymph node lymphocytes into SJL mice; assay type: in vivo, mouse; details: 2 ng of Lipid 654 intravenously on day of cell transfer; 30 days; 5 mice; p=0.0006
Method: Female SJL mice were injected intra-peritoneally with 30×10^6 4-day in-vitro-activated proteolipid protein (PLP)-stimulated lymph node lymphocytes and on the same day injected intravenously with either phosphate buffered saline (PBS) (vehicle control=“VC”) or 2 ng of Lipid 654. Mice were followed for 30 days for development of EAE and scored as 1=tail paralysis; 2=abnormal gait; 3=paralyzed hind legs; 4=paralyzed front and hind legs; 5=death. The results in FIG. 21 depict the daily mean for 5 mice injected with the VC and 5 mice injected with Lipid 654. […] Thus, MS patients can be treated directly with Lipid 654 or with commensal bacteria that produce increased amounts of Lipid 654.

Method for phospholipase A2 (PLA2): Aliquots of the enriched 654 (10 μg each) were dispensed into conical vials and the residual solvent was dried. Tris-buffered (10 mM) saline containing either no calcium/0.01% sodium EDTA, 2.5 mM calcium, or 10 mM calcium was added to specific vials (1.0 ml) and the solution was sonicated for 30 seconds. Specific vials were then supplemented with either porcine pancreatic phospholipase A2 (PP PLA2), honey bee venom PLA2, bovine liver nonspecific esterase (BLE), phospholipase C (PLC), lipoprotein lipase (LL), phospholipase D (PLD), or cobra venom factor (CVF). PP PLA2 or HBV PLA2 was added at a concentration of 96 or 120 U/ml, respectively. All other lipase preparations were used at this or a higher concentration. Controls were dissolved in the indicated Tris buffer but were not supplemented with enzyme. Each vial was stirred for 3 days after which the hydrolyzate was acidified with 100 ul of glacial acetic acid and extracted three times with chloroform. The pooled extracts were dried, reconstituted in HPLC solvent, and evaluated for recovery of Lipid 654 and Lipid 430 using MRM-MS as previously described. Two different isolates of Lipid 654, indicated as (A) and (B), were compared for hydrolysis by either porcine pancreatic or honey bee venom PLA2.

| SMILES | Innate immune activation via TLR4 (TLR4) | HEK cell activation versus DMSO vehicle (stimulated/nonstimulated ratio) (human TLR2) | Activation of human TLR2 in HEK cells (human TLR2; 24 hours) | Effect of pretreatment with anti-human TLR2 antibody on HEK-TLR2 cell activation (human TLR2; 24 hours) | Activation of TLR4-expressing HEK293 cells (human TLR4) | Serum levels of CCL2 (CCL2; TLR2−/− mice, lipid 430 2.5 μg i.v. in PBS) | Serum levels of CCL2 (CCL2; WT mice, lipid 430 2.5 μg i.v. in PBS) | Potency in engaging TLR2 relative to the Lipid 654 preparation (TLR2) | TLR2 agonism (TLR2; Lipid 430 released with PLA2 treatment of Lipid 654) | Effect of anti-TLR2 and anti-TLR6 antibodies on NF-κB activation (human TLR2; Example 17, 24 hours) | NF-κB activation (SEAP) (human TLR2; Example 17, 24 hours, no antibodies) | Activation of TLR4-expressing cell line (human TLR4; Example 17, LPS derived from P. gingivalis, two preparations of Lipid 654) | Serum levels of CCL2 (CCL2; TLR2−/− mice, lipid 654 1 μg i.p. in 50% DMSO) | Serum levels of CCL2 (CCL2; WT mice, lipid 654 1 μg i.p. in 50% DMSO) | Course of EAE compared to vehicle control (female SJL mice with EAE) | Hydrolysis to Lipid 430 by other common lipase enzymes (phospholipase A2 (PLA2); BLE, PLC, LL, PLD, CVF, 3 days) | Hydrolysis by phospholipase A2 enzymes (phospholipase A2 (PLA2); porcine pancreas PLA2 96 U/ml or honey bee venom PLA2 120 U/ml, 3 days) | Portion not hydrolyzed by PLA2 (phospholipase A2 (PLA2); repeated treatment with PLA2) |
| --- | --- | --- | --- | --- | --- | --- | --- | --- | --- | --- | --- | --- | --- | --- | --- | --- | --- | --- |
| CC(C)CCCCCCCCCCCC(=O)O[C@H](CCCCCCCCCCCC(C)C)CC(=O)NCC(=O)NC(CO)C(=O)O (stereo partly shown) [Flavolipin] | acting as an agonist for TLR4 |  |  |  |  |  |  |  |  |  |  |  |  |  |  |  |  |  |
| CC(C)CCCCCCCCCCCC(O)CC(=O)NCC(=O)N[C@@H](CO)C(=O)O (stereo partly shown) [Lipid 430] |  | promoted significant HEK cell activation over the control cells; also recorded: significantly elevated over the DMSO vehicle | activates HEK cells through TLR2; also recorded: show the capacity to activate human TLR2 in HEK cells | significantly inhibited by pretreatment with anti-human TLR2 antibody | showed no capacity to activate the TLR4-expressing cell line | failed to do so | induced a significant increase in serum levels of CCL2 | at least ten fold more potent | strong TLR2 agonist |  |  |  |  |  |  |  |  |  |
| CC(C)CCCCCCCCCCCC(=O)OC(CCCCCCCCCCCC(C)C)CC(=O)NCC(=O)N[C@@H](CO)C(=O)O (stereo partly shown) [Lipid 654] |  | promoted significant HEK cell activation over the control cells; also recorded: significantly elevated over the DMSO vehicle | show the capacity to activate human TLR2 in HEK cells | significantly inhibited by pretreatment with anti-human TLR2 antibody | showed no capacity to activate the TLR4-expressing cell line |  |  |  |  | inhibited by anti-TLR2 and anti-TLR6 antibodies | demonstrated NF-κB-activation | showed no ability to activate the TLR4-expressing cell line | failed to do so | induced a significant increase in serum levels of CCL2 | significantly inhibited the course of EAE | no other common lipase enzymes | is hydrolyzed by phospholipase A2 (PLA2) enzymes | Approximately half |
